Drawing on ChEMBL document CHEMBL1143399, “A small-molecule nitroimidazopyran drug candidate for the treatment of tuberculosis” (Nature, 2000), this text covers log10cfu, MIC and Activity for four compounds.

Data set [1] has as its system Mycobacterium tuberculosis. The experiment in a line: Antimicrobial activity against log phase recombinant Mycobacterium tuberculosis H37Rv-lux with plasmid MV361 at 10 ug/ml incubated for 7 days assessed as bacterial count after 4 days. The class given is functional.
Data set [2] concerns Mycobacterium tuberculosis. Put plainly: Antimicrobial activity against log phase recombinant Mycobacterium tuberculosis H37Rv-lux with plasmid MV361 at 10 ug/ml incubated for 7 days assessed as bacterial count. Type of data set: functional.
Data set [3] deals with Mycobacterium tuberculosis. Put plainly: Antimycobacterial activity against pan-susceptible Mycobacterium tuberculosis TN2524. The class given is functional.
Data set [4] has as its system Mycobacterium tuberculosis. Put plainly: Antimycobacterial activity against pan-susceptible Mycobacterium tuberculosis TN1008. Type of data set: functional.
Data set [5] deals with Mycobacterium tuberculosis. Put plainly: Antimycobacterial activity against pan-susceptible Mycobacterium tuberculosis TN4259. Type of data set: functional.
The test system of data set [6] is Mycobacterium tuberculosis. The experiment in a line: Antimycobacterial activity against pan-susceptible Mycobacterium tuberculosis TN2351. The class given is functional.
Data set [7] concerns Mycobacterium tuberculosis. The experiment in a line: Antimycobacterial activity against pan-susceptible Mycobacterium tuberculosis TN1037. The class given is functional.
Data set [8] has as its system Mycobacterium tuberculosis. Put plainly: Antimycobacterial activity against pan-susceptible Mycobacterium tuberculosis H37Rv. The class given is functional.
Data set [9] has as its system Mycobacterium tuberculosis. Put plainly: Antimycobacterial activity against pan-susceptible Mycobacterium tuberculosis TN3183. The class given is functional.
Data set [10] concerns Mycobacterium tuberculosis. Put plainly: Antimycobacterial activity against pan-susceptible Mycobacterium tuberculosis TN913. The class given is functional.
Data set [11] deals with Mycobacterium tuberculosis. The experiment in a line: Antimycobacterial activity against pan-susceptible Mycobacterium tuberculosis TN1082. Type of data set: functional.
For data set [12], the system named is Mycobacterium tuberculosis. The experiment in a line: Antimycobacterial activity against pan-susceptible Mycobacterium tuberculosis TN1051. The class given is functional.
For data set [13], the system named is Mycobacterium tuberculosis. Put plainly: Antimycobacterial activity against pan-susceptible Mycobacterium tuberculosis TN1040. The class given is functional.
Data set [14] concerns Mycobacterium tuberculosis. Put plainly: Antimycobacterial activity against pan-susceptible Mycobacterium tuberculosis TN3979. Type of data set: functional.
The test system of data set [15] is Mycobacterium tuberculosis. Put plainly: Antimycobacterial activity against Mycobacterium tuberculosis H37Rv ATCC 27294 infected in Hartley guinea pig assessed as reduction in mycobacterial burden in spleen at 40 mg/kg, po daily after 30 days of infection for 30 days relative to isoniazid. Type of data set: functional, organism-based. Set-up: dose 40 mg/kg.
The subject of data set [16] is Mus musculus. Put plainly: Acute toxicity in Mycobacterium tuberculosis H37Rv infected BALB/c mouse at >1000 mg/kg, po single dose. The class given is organism-based. The conditions noted are these: in vivo.
For data set [17], the system named is Mycobacterium tuberculosis. Put plainly: Antimycobacterial activity against Mycobacterium tuberculosis H37Rv ATCC 27294 infected in Hartley guinea pig assessed as reduction in mycobacterial burden in lung at 40 mg/kg, po daily after 30 days of infection for 30 days relative to isoniazid. Type of data set: functional, organism-based. Set-up: dose 40 mg/kg.
Data set [18] concerns Mycobacterium tuberculosis. Put plainly: Antimycobacterial activity against Mycobacterium tuberculosis H37Rv with plasmid MH102 infected in BALB/c mouse assessed as reduction in mycobacterial burden in lung at 100 mg/kg, po daily after 4 days of infection for 7 to 60 days relative to isoniazid. Type of data set: functional, organism-based. Set-up: dose 100 mg/kg.
Data set [19] deals with Mycobacterium tuberculosis. Put plainly: Antimycobacterial activity against Mycobacterium tuberculosis H37Rv with plasmid MH102 infected in BALB/c mouse assessed as reduction in mycobacterial burden in lung at 25 mg/kg, po daily after 4 days of infection for 10 days relative to isoniazid. The class given is functional, organism-based. Set-up: dose 25 mg/kg.
Data set [20] concerns Mycobacterium tuberculosis. The experiment in a line: Antimycobacterial activity against Mycobacterium tuberculosis clinical isolate IS6110 infected in mouse at 25 mg/kg, po. Type of data set: functional, organism-based. Set-up: dose 25 mg/kg.
The test system of data set [21] is Mus musculus. The experiment in a line: Chronic toxicity in Mycobacterium tuberculosis H37Rv infected BALB/c mouse at >500 mg/kg, po for 28 days. The class given is organism-based. The note with it: in vivo, 672 h.
Data set [22] relates to Mycobacterium tuberculosis. Put plainly: Antimycobacterial activity against Mycobacterium tuberculosis H37Rv with plasmid MH102 infected in BALB/c mouse assessed as reduction in mycobacterial burden in lung at 50 mg/kg, po daily after 4 days of infection for 7 to 60 days relative to isoniazid. The class given is functional, organism-based. Set-up: dose 50 mg/kg.
Data set [23] has as its system Mycobacterium tuberculosis. Put plainly: Antimycobacterial activity against Mycobacterium tuberculosis H37Rv with plasmid MH102 infected in BALB/c mouse assessed as reduction in mycobacterial burden in spleen at 25 mg/kg, po daily after 4 days of infection for 10 days relative to isoniazid. Set-up: dose 25 mg/kg. Type of data set: functional, organism-based.

In brackets after ≈: the same amount, converted by molar mass. Activity calls are given as the source filed them. No cut-off for these calls is given here.

In the case of `CCC1Cn2cc([N+](=O)[O-])nc2O1` (stereo unspecified), the figures for the log10cfu in [1] and in data set [2] were 1.5 and 1.8, respectively.
As to `NNC(=O)c1ccncc1` [ISONIAZID], the minimal inhibitory concentration (MIC) (in general, the least concentration at which growth counts as inhibited) in [3] is 0.06 µg/mL (≈ 0.438 µM); in data set [4], 0.06 µg/mL (≈ 0.438 µM); in [5], 0.03 µg/mL (≈ 0.219 µM); in data set [6] it was 0.06 µg/mL (≈ 0.438 µM); in [7] it was 0.03 µg/mL (≈ 0.219 µM); in data set [8] it was 0.03 µg/mL (≈ 0.219 µM). For the same compound, the minimum inhibitory concentration (MIC) in data set [9] turned out to be 0.03 µg/mL (≈ 0.219 µM); in [10], 0.03 µg/mL (≈ 0.219 µM); in [11], 0.03 µg/mL (≈ 0.219 µM); in data set [12] it was 0.03 µg/mL (≈ 0.219 µM); in [13] it was 0.03 µg/mL (≈ 0.219 µM); in data set [14], 0.06 µg/mL (≈ 0.438 µM). Also, the log10cfu in data set [1] turned out to be 1; in data set [2] it was 1.4.
Turning to `Cc1ncc([N+](=O)[O-])n1CCO` [METRONIDAZOLE], the log10cfu is on record as 3.2 in data set [1] and 2.8 in [2].
`O=[N+]([O-])c1cn2c(n1)OC[C@@H](OCc1ccc(OC(F)(F)F)cc1)C2` [PRETOMANID]: the result in data set [15], in [17], in data set [18], in data set [19], in data set [20] and in data set [22] was Active. Moreover, the result in data set [23] was Active. Besides, the MIC worked out at 0.25 µg/mL (≈ 0.696 µM) in data set [3]; 0.06 µg/mL (≈ 0.167 µM) in data set [4]; 0.06 µg/mL (≈ 0.167 µM) in data set [5]; 0.06 µg/mL (≈ 0.167 µM) in [6]; 0.06 µg/mL (≈ 0.167 µM) in [7]; 0.13 µg/mL (≈ 0.362 µM) in [8]. Also, the minimum inhibitory concentration (MIC) in [9] came to 0.015 µg/mL (≈ 0.0418 µM); in data set [10], 0.06 µg/mL (≈ 0.167 µM); in data set [11], 0.06 µg/mL (≈ 0.167 µM); in data set [12], 0.06 µg/mL (≈ 0.167 µM); in [13], 0.13 µg/mL (≈ 0.362 µM); in data set [14], 0.13 µg/mL (≈ 0.362 µM). Besides, the log10cfu in data set [1] is 3.1; in data set [2], 3.5. The Activity entry in the data set on Mus musculus [16] and in the data set with Mus musculus [21] was “Toxic” throughout.
